We go through 5 molecules from PubChem BioAssay AID1259407 (Chemical Carcinogenesis Research Information System (CCRIS), 2018).

This data set relates to CCRIS mutagenicity, Ames/micronucleus/aberration tests. Briefly: CCRIS mutagenicity studies.
Setting [1] is: Test System: AMES SALMONELLA TYPHIMURIUM, Strain/Indicator: TA98, Metabolic Activation: NONE, Method: PREINCUBATION
The mark [2] stands for this setting: Test System: AMES SALMONELLA TYPHIMURIUM, Strain/Indicator: TA100, Metabolic Activation: NONE, Method: PREINCUBATION
The mark [3] stands for this setting: Test System: AMES SALMONELLA TYPHIMURIUM, Strain/Indicator: TA98, Metabolic Activation: NONE, Method: STANDARD PLATE.
The mark [4] stands for this setting: Test System: AMES SALMONELLA TYPHIMURIUM, Strain/Indicator: TA100, Metabolic Activation: NONE, Method: STANDARD PLATE.

Active and inactive are the calls of the source. The rule behind the calls is not given here.

Regarding `O=C1C(Cl)=C(Cl)C(=O)C(Cl)=C1Cl`, the mutagenic call was “active; positive (structural changes and ploidy)” (End Point: In vitro chromosomal aberrations, Test System: Chinese hamster lung (CHL/IU) cells, Metabolic Activation: Rat, Liver, S9, Phenobarbital and 5,6-benzoflavone); “inactive; negative” under setting [1]; “inactive; negative” under setting [2]; “active; positive” (Test System: AMES SALMONELLA TYPHIMURIUM, Strain/Indicator: TA100, Metabolic Activation: RAT, LIVER, S-9, PHENOBARBITAL AND 5,6-BENZOFLAVONE, Method: PREINCUBATION); “inactive; negative” (Test System: AMES SALMONELLA TYPHIMURIUM, Strain/Indicator: TA102, Metabolic Activation: NONE, Method: PREINCUBATION); “inactive; negative” (Test System: AMES SALMONELLA TYPHIMURIUM, Strain/Indicator: TA102, Metabolic Activation: RAT, LIVER, S-9, PHENOBARBITAL AND 5,6-BENZOFLAVONE, Method: PREINCUBATION). Moreover, the mutagenic call reads like this: (Test System: AMES SALMONELLA TYPHIMURIUM, Strain/Indicator: TA2637, Metabolic Activation: NONE, Method: PREINCUBATION) “inactive; negative”; (Test System: AMES SALMONELLA TYPHIMURIUM, Strain/Indicator: TA2637, Metabolic Activation: RAT, LIVER, S-9, PHENOBARBITAL AND 5,6-BENZOFLAVONE, Method: PREINCUBATION) “inactive; negative”; (Test System: Ames Salmonella typhimurium, Strain/Indicator: TA98, Metabolic Activation: None, Method: Preincubation) “inactive; negative”; (Test System: Ames Salmonella typhimurium, Strain/Indicator: TA98, Metabolic Activation: Rat, Liver, S9, Sodium phenobarbital and 5,6-benzoflavone (10%), Method: Preincubation) “inactive; negative”; (Test System: Ames Salmonella typhimurium, Strain/Indicator: TA100, Metabolic Activation: None, Method: Preincubation) “inactive; negative”; (Test System: Ames Salmonella typhimurium, Strain/Indicator: TA100, Metabolic Activation: Rat, Liver, S9, Sodium phenobarbital and 5,6-benzoflavone (10%), Method: Preincubation) “active; positive”. Also, the mutagenic call (Test System: Ames Salmonella typhimurium, Strain/Indicator: TA1535, Metabolic Activation: None, Method: Preincubation) is “inactive; negative”; the mutagenic call (Test System: Ames Salmonella typhimurium, Strain/Indicator: TA1535, Metabolic Activation: Rat, Liver, S9, Sodium phenobarbital and 5,6-benzoflavone (10%), Method: Preincubation) is “inactive; negative”; the mutagenic call (Test System: Ames Salmonella typhimurium, Strain/Indicator: TA1537, Metabolic Activation: None, Method: Preincubation) was “inactive; negative”; the mutagenic call (Test System: Ames Salmonella typhimurium, Strain/Indicator: TA1537, Metabolic Activation: Rat, Liver, S9, Sodium phenobarbital and 5,6-benzoflavone (10%), Method: Preincubation) is “inactive; negative”; the mutagenic call (Test System: E. coli, Strain/Indicator: WP2uvrA/pKM101, Metabolic Activation: None, Method: Preincubation) is “inactive; negative”; the mutagenic call (Test System: E. coli, Strain/Indicator: WP2uvrA/pKM101, Metabolic Activation: Rat, Liver, S9, Sodium Phenobarbital and 5,6-benzoflavone, Method: Preincubation) is “inactive; negative”.

Turning to `OC(c1ccc(Cl)cc1)(c1cncnc1)c1ccccc1Cl` (configuration not stated), the mutagenic call is “inactive; negative” (End Point: In vitro chromosomal aberrations, Test System: Human lymphocytes, Metabolic Activation: None); “inactive; negative” (End Point: In vitro chromosomal aberrations, Test System: Human lymphocytes, Metabolic Activation: S-9); “active; positive. statistically significant increase at 24 hr but no effects at 48 or 72” (End Point: In vivo micronucleus, Test System: Bone marrow polychromatic erythrocytes, Species: Mouse, Strain/Sex: Not specified/Male, Route: Oral); “inactive; negative” (End Point: In vivo micronucleus, Test System: Bone marrow polychromatic erythrocytes, Species: Rat, Strain/Sex: Sprague-Dawley (Male and female), Route: Oral); “inactive; negative” (Test System: Ames Salmonella typhimurium, Strain/Indicator: TA98, Metabolic Activation: None, Method: Plate incorporation); “inactive; negative” (Test System: Ames Salmonella typhimurium, Strain/Indicator: TA98, Metabolic Activation: Rat, Liver, S-9, Method: Plate incorporation). The mutagenic call is “inactive; negative” (Test System: Ames Salmonella typhimurium, Strain/Indicator: TA100, Metabolic Activation: None, Method: Plate incorporation); “inactive; negative” (Test System: Ames Salmonella typhimurium, Strain/Indicator: TA100, Metabolic Activation: Rat, Liver, S-9, Method: Plate incorporation); “inactive; negative” (Test System: Ames Salmonella typhimurium, Strain/Indicator: TA1535, Metabolic Activation: None, Method: Plate incorporation); “inactive; negative” (Test System: Ames Salmonella typhimurium, Strain/Indicator: TA1535, Metabolic Activation: Rat, Liver, S-9, Method: Plate incorporation); “inactive; negative” (Test System: Ames Salmonella typhimurium, Strain/Indicator: TA1537, Metabolic Activation: None, Method: Plate incorporation); “inactive; negative” (Test System: Ames Salmonella typhimurium, Strain/Indicator: TA1537, Metabolic Activation: Rat, Liver, S-9, Method: Plate incorporation). Besides, the mutagenic call by setting is: (Test System: E. coli, Strain/Indicator: WP2uvrA-, Metabolic Activation: None, Method: Plate incorporation) “inactive; negative”; (Test System: E. coli, Strain/Indicator: WP2uvrA-, Metabolic Activation: Rat, Liver, S-9, Method: Plate incorporation) “inactive; negative”.

Consider `c1ccoc1`, for which the mutagenic call (End Point: In vitro micronucleus, Test System: Human lymphocytes, Metabolic Activation: None) was “inactive; negative”; the mutagenic call (End Point: In vitro micronucleus, Test System: Human lymphocytes, Metabolic Activation: Rat, liver, S-9, Aroclor 1254) was “inactive; negative”; the mutagenic call (End Point: In vitro micronucleus, Test System: Mouse lymphoma L5178Y cells, Metabolic Activation: None) was “inactive; negative”; the mutagenic call (End Point: In vivo micronucleus, Test System: Peripheral blood erythrocytes, Species: Mouse, Strain/Sex: Balb/C/Male, Route: Intraperitoneal) was “inactive; negative”; the mutagenic call (End Point: In vivo micronucleus, Test System: Peripheral blood erythrocytes, Species: Mouse, Strain/Sex: Balb/C/Male, Route: Subcutaneous) was “inactive; negative”; the mutagenic call (Test System: AMES SALMONELLA TYPHIMURIUM, Strain/Indicator: TA98, Metabolic Activation: HAMSTER, LIVER, S-9, AROCLOR 1254 (10%), Method: PREINCUBATION) is “inactive; negative”. Besides, the mutagenic call is “inactive; negative” under setting [1]; “inactive; negative” (Test System: AMES SALMONELLA TYPHIMURIUM, Strain/Indicator: TA98, Metabolic Activation: RAT, LIVER, S-9, AROCLOR 1254 (10%), Method: PREINCUBATION); “inactive; negative” (Test System: AMES SALMONELLA TYPHIMURIUM, Strain/Indicator: TA98, Metabolic Activation: RAT, LIVER, S-9, AROCLOR 1254, Method: STANDARD PLATE); “active; positive” (Test System: AMES SALMONELLA TYPHIMURIUM, Strain/Indicator: TA98, Metabolic Activation: S-9, Method: STANDARD PLATE); “inactive; negative” (Test System: AMES SALMONELLA TYPHIMURIUM, Strain/Indicator: TA100, Metabolic Activation: HAMSTER, LIVER, S-9, AROCLOR 1254 (10%), Method: PREINCUBATION); “inactive; negative” under setting [2]. The mutagenic call (Test System: AMES SALMONELLA TYPHIMURIUM, Strain/Indicator: TA100, Metabolic Activation: RAT, LIVER, S-9, AROCLOR 1254 (10%), Method: PREINCUBATION) is “inactive; negative”; the mutagenic call (Test System: AMES SALMONELLA TYPHIMURIUM, Strain/Indicator: TA100, Metabolic Activation: S-9, Method: STANDARD PLATE) was “inactive; negative”; the mutagenic call (Test System: AMES SALMONELLA TYPHIMURIUM, Strain/Indicator: TA1535, Metabolic Activation: HAMSTER, LIVER, S-9, AROCLOR 1254 (10%), Method: PREINCUBATION) is “inactive; negative”; the mutagenic call (Test System: AMES SALMONELLA TYPHIMURIUM, Strain/Indicator: TA1535, Metabolic Activation: NONE, Method: PREINCUBATION) was “inactive; negative”; the mutagenic call (Test System: AMES SALMONELLA TYPHIMURIUM, Strain/Indicator: TA1535, Metabolic Activation: RAT, LIVER, S-9, AROCLOR 1254 (10%), Method: PREINCUBATION) was “inactive; negative”; the mutagenic call (Test System: AMES SALMONELLA TYPHIMURIUM, Strain/Indicator: TA1537, Metabolic Activation: HAMSTER, LIVER, S-9, AROCLOR 1254 (10%), Method: PREINCUBATION) is “inactive; negative”. In addition, the mutagenic call by setting is: (Test System: AMES SALMONELLA TYPHIMURIUM, Strain/Indicator: TA1537, Metabolic Activation: NONE, Method: PREINCUBATION) “inactive; negative”; (Test System: AMES SALMONELLA TYPHIMURIUM, Strain/Indicator: TA1537, Metabolic Activation: RAT, LIVER, S-9, AROCLOR 1254 (10%), Method: PREINCUBATION) “inactive; negative”; (Test System: Mouse lymphoma, Strain/Indicator: L5178Y (tk+/tk-), Metabolic Activation: None, Method: Preincubation) “inactive; negative”.

Take `CCOC(=O)OC(=O)OCC`: the mutagenic call is “inactive; negative” under setting [3] and “inactive; negative” under setting [4].

For the molecule `O=[N+]([O-])c1ccc2ccc3cc4c(c5ccc1c2c35)CCCC4`, the mutagenic call by setting is: under setting [3], “active; positive”; under setting [4], “inactive; negative”.
